From patent US10034879B2, “Substituted benzaldehyde compounds and methods for their use in increasing tissue oxygenation” (Global Blood Therapeutics, Inc., priority 2011, dated 2018)

How the values were obtained:
[1] = target: T1, HbS (Homo sapiens, UniProt P68871+P69905, E7V); test: Whole blood assay, oxygen equilibrium curves of whole blood from sickle cell patients; type: cell-based; settings: hematocrit 20%, compound at 1000 μM
T1 construct: Oxygen Equilibrium Curves (OEC) of whole blood before and after treatment; endogenous in cells; host or cells: whole blood (red blood cells) of homozygous sickle cell patients
Procedure: Oxygen Equilibrium Curves (OEC) of whole blood before and after treatment with different concentrations of substituted benzaldehyde compounds were performed as follows using a HEMOX analyzer (TCS Scientific, New Hope, Pa.). Blood samples from homozygous sickle cell patients were obtained though the Hemoglobinopathy Center at Children's Hospital Oakland Research Institute (CHORI) with Institutional Review Board approval. The hematocrit was adjusted to 20% using autologous plasma and the blood samples were incubated for 1 hour at 37° C. in absence or presence of compounds. 100 μl of these samples were added to 5 mL of Hemox buffer (30 mM TES, 130 mM NaCl, 5 mM KCl, pH=7.4) at 37° C. and then transferred to the Hemox sample chamber. The samples were saturated with oxygen by flushing with compressed air for 10 minutes. The samples were then flushed with pure nitrogen and the respective absorbances of oxy- and deoxy-Hb are recorded as a function of the solution pO2. The oxygen equilibrium data were then fitted to the Hill Model to obtain values for p50. The deoxygenation curves for both whole blood alone (control) and whole blood in the presence of the compound were collected with the TCS software.
Table 5 below lists the delta p50% values where + indicates a delta p50% of between 0 and 29, ++ indicates a delta p50% of between 30 and 50, and +++ indicates a delta p50% of 50 or greater. The compounds in Table 2 were tested at 1000 μM.

[2] = target: T2, purified HBS (Homo sapiens, UniProt P68871+P69905, E7V); test: HbS polymerization assay (delay time); type: biochemical; settings: 50 μM purified HBS, 1.8 M potassium phosphate pH 7.4
T2 construct: HbS is purified by the CRO VIRUSYS, from blood obtained from homozygous sickle cell patients; tissue VIRUSYS (CRO that did the purification); host or cells: blood of homozygous sickle cell patients
Procedure: Polymerization assays are carried out in vitro using purified HBS exchanged into 1.8 M potassium phosphate buffer at pH 7.4. Using a slightly modified protocol (Antonini and Brunori, 1971), HbS is purified by the CRO VIRUSYS, from blood obtained from homozygous sickle cell patients through the Hemoglobinopathy Center at Children's Hospital Oakland Research Institute (CHORI) with Institutional Review Board approval. Compounds are prepared in 100% DMSO and a desired amount is added to 50 μM of purified HBS at a final DMSO concentration of 0.3%. Final potassium phosphate concentration is adjusted to 1.8 M using a combination of 2.5 M potassium phosphate stock solution and water at pH 7.4. The reaction mixture is incubated for an hour at 37° C. and then transferred into a 24-well plate for deoxygenation in a glove box containing 99.5% nitrogen and 0.5% oxygen. The 24-well plate is not covered and incubated at 4° C. on a plate cooler inside the glove box for one and a half hours. Fifty μL of the reaction mixture is transferred into a 96-well plate and the absorbance at 700 nm is measured every minute for one hour at 37° C. in a plate reader located inside the glove box. A plot of the absorbance against time is fitted using a Boltzman sigmoidal fit and the delay time (from zero to time at half Vmax) is measured. To compare and rank compounds, delay times are expressed as percent delay (% DT), which is defined as the difference in delay times for HBS/compound and HBS alone multiplied by 100 and divided by the delay time for HBS alone.
Compounds listed below have been tested in the polymerization assay. Activity ranges are defined by the number of dagger (†) symbols indicated. † denotes activity ≤40% but ≤80%; †† denotes activity >80% but ≤120%; ††† denotes activity >120% but ≤140%; †††† denotes activity >160%.

[3] = target: T3, HbS/A (Homo sapiens, UniProt P68871+P69905, E7V); test: Relaxed-to-tense transition assay (R/T assay); type: biochemical; settings: 3 μM HbS/A
T3 construct: A mixture of HbS/A was purified from blood; from tissue; host or cells: blood of homozygous sickle cell patients
Procedure: A relaxed-to-tense transition assay (“R/T assay”) was used to determine the ability of substituted benzaldehyde compounds to maintain the high-oxygen affinity relaxed (R) state of hemoglobin under deoxygenated conditions. This ability can be expressed as a “delta R” value (i.e., the change in the time-period of the R state after hemoglobin is treated with a compound, as compared to the period without treatment with the compound). Delta R is the % R to remaining after the compounds treatment compared with no treatment (e.g. if R % without treatment is 8% while with treatment with a target compound is 48% R at 30 μM, then % R is 40% for that compound.
A mixture of HbS/A was purified from blood obtained from homozygous sickle cell patients though the Hemoglobinopathy Center at Children's Hospital Oakland Research Institute (CHORI) with Institutional Review Board approval. HbS/A (at a final concentration of 3 μM) was incubated for 1 hr at 37° C. in presence or absence of compounds in […] potassium phosphate buffer, pH=7.4 and 30 μM 2, 3 diphosphoglycerate (DPG) in 96 well plates in a final volume of 160 μl. Compounds were added at different concentrations (3 μM to 100 μM final concentrations). Plates were covered with a Mylar film. After incubation was completed the Mylar cover was removed and the plates were placed in a Spectrostar Nano plate reader previously heated at 37° C. Five minutes later, N2 (flow rate=20 L/min) was flowed through the spectrophotometer. Spectroscopic measurements (300 nm to 700 nm) were taken every 5 min for 2 hours. Data analysis was performed by using linear regression from the data retrieved for all wavelengths.
Table 4 below lists the delta R values where + indicates a delta R of between 0 and 30, ++ indicates a delta R of between 30 and 50, and +++ indicates a delta R of 50 or greater. Unless noted otherwise, the compounds in Table 2 were tested at 9 μM.

[4] = target: T4, purified Hemoglobin S (HbS) (Homo sapiens, UniProt P68871+P69905, E7V); test: Oxygen equilibrium curves (OEC) in purified HbS, HEMOX analyzer, change in p50; type: biochemical; settings: 25 μM purified HbS
T4 construct: HbS was purified by a modified procedure; from tissue; host or cells: blood of homozygous sickle cell patients
Procedure: Oxygen equilibrium curves (OEC) in purified Hemoglobin S (HbS) were measured by the change in p50, the partial pressure of oxygen at which the heme binding sites in the HbS sample are 50% saturated with oxygen. HbS was purified by a modified procedure (Antonini and Brunori, 1971; Heomoglobin and Myoglobin in their Reactions with Ligands; North Holland Publishing Company; Amsterdam, London) from blood obtained from homozygous sickle cell patients though the Hemoglobinopathy Center at Children's Hospital Oakland Research Institute (CHORI) with Institutional Review Board approval. Oxygen equilibrium curves were carried out with a HEMOX analyzer, (TCS Scientific, New Hope, Pa.). Five hundred μL of 250 μM purified HbS were diluted into 4.5 mL of HEMOX buffer (30 mM TES, 130 mM NaCl, 5 mM KCl, pH=7.4) resulting in a final hemoglobin concentration of 25 μM. The compounds were added at the final desired concentrations. The mixture was incubated for 45 min at 37° C. and then transferred to the Hemox sample chamber. The samples were saturated with oxygen by flushing with compressed air for 10 minutes. The samples were then flushed with pure nitrogen and the absorbance of deoxy-Hb was recorded as a function of the solution pO2. The oxygen equilibrium data was then fit to the Hill Model to obtain values for p50. The deoxygenation curves for both HbS alone (control) and HbS in the presence of compound were collected with the TCS software. The p50 for purified Hbs was typically 13.8±1.6. Delta p50 values were obtained from the p50 value for control minus the p50 value for HbS treated with compound divided by the p50 value for the control.
The compounds of Table 1 that were where tested in the assay above were all found to have positive delta p50 values. Delta p50% is calculated from [[p50(HbS)−p50(HbS treated with compound)]/p50(HbS)]×100. Table 2 below lists the delta p50% values where + indicates a delta p50% of between 0 and 29 and ++ indicates a delta p50% of 30 or greater. Unless noted otherwise, the compounds in Table 2 were tested at 30 μM.

[5] = tested on: Transgenic mice producing human HbS; settings: extreme hypoxia (5% oxygen), vs non-treated mice; cited from earlier work

O=Cc1c(O)cccc1OCc1ccc(-c2nn[nH]n2)cc1 [Compound 45, 2-((4-(2H-tetrazol-5-yl)benzyl)oxy)-6-hydroxybenzaldehyde]
delta p50% [1]: + (+ indicates a delta p50% of between 0 and 29)
% delta Delay [2]: †† (†† denotes activity >80% but ≤120%)
delta R (%) ([3]; compound at 9 μM): +++ (+++ indicates a delta R of 50 or greater)

O=Cc1c(O)cccc1OCc1cccc(-c2nn[nH]n2)c1 [Compound 44, 2-((3-(2H-tetrazol-5-yl)benzyl)oxy)-6-hydroxybenzaldehyde]
delta p50% [1]: + (+ indicates a delta p50% of between 0 and 29)
delta R (%) ([3]; compound at 9 μM): +++ (+++ indicates a delta R of 50 or greater)

COc1ccc(OCc2cccnc2)c(C=O)c1 [Compound 41, 5-methoxy-2-(pyridin-3-ylmethoxy)benzaldehyde]
delta R (%) ([3]; compound at 9 μM): + (+ indicates a delta R of between 0 and 30)

COc1ccc(OCc2cn3ccccc3n2)c(C=O)c1 [Compound 5, 2-(imidazo[1,2-a]pyridin-2-ylmethoxy)-5-methoxybenzaldehyde]
delta p50 ([4]; compound at 30 μM): ++ (++ indicates a delta p50% of 30 or greater)
delta R (%) ([3]; compound at 9 μM): ++ (++ indicates a delta R of between 30 and 50)

COc1ccc(OCc2cccc3ncccc23)c(C=O)c1 [Compound 10, 5-methoxy-2-(quinolin-5-ylmethoxy)benzaldehyde]
delta p50 ([4]; compound at 30 μM): ++ (++ indicates a delta p50% of 30 or greater)
delta R (%) ([3]; compound at 9 μM): ++ (++ indicates a delta R of between 30 and 50)

O=Cc1ccccc1OCc1ccc(C(=O)O)cc1 [Compound 47, 4-((2-formylphenoxy)methyl)benzoic acid]
% delta Delay [2]: †† (†† denotes activity >80% but ≤120%)

O=Cc1c(O)cccc1OCc1ccc(C(=O)O)cc1 [Compound 42, 4-((2-formyl-3-hydroxyphenoxy)methyl)benzoic acid]
delta p50% [1]: + (+ indicates a delta p50% of between 0 and 29)
% delta Delay [2]: †† (†† denotes activity >80% but ≤120%)
delta R (%) ([3]; compound at 30 μm): +++ (30 μm) (+++ indicates a delta R of 50 or greater)

COc1ccc(OCc2cccc3[nH]ncc23)c(C=O)c1 [Compound 25, 2-((1H-indazol-4-yl)methoxy)-5-methoxybenzaldehyde]
delta p50 ([4]; compound at 30 μM): ++ (++ indicates a delta p50% of 30 or greater)
delta R (%) ([3]; compound at 9 μM): ++ (++ indicates a delta R of between 30 and 50)

COc1ccc(OCc2cn3cccc(C)c3n2)c(C=O)c1 [Compound 24, 5-methoxy-2-((8-methylimidazo[1,2-a]pyridin-2-yl)methoxy)benzaldehyde]
delta p50 ([4]; compound at 30 μM): ++ (++ indicates a delta p50% of 30 or greater)
delta R (%) ([3]; compound at 9 μM): + (+ indicates a delta R of between 0 and 30)

COc1ccc(OCc2ccn3ccnc3c2)c(C=O)c1 [Compound 8, 2-(imidazo[1,2-a]pyridin-7-ylmethoxy)-5-methoxybenzaldehyde]
delta p50 ([4]; compound at 30 μM): + (+ indicates a delta p50% of between 0 and 29)

O=Cc1ccc(CO)o1 [Compound 5HMF, 5-hydroxymethyl-2-furfuraldehyde]
amounts of hypoxia-induced sickled red blood cells [5]: reduced
survival times [5]: significantly improved

O=Cc1ccc(Cl)cc1OCc1cccn2ccnc12 [Compound 12, 4-chloro-2-(imidazo[1,2-a]pyridin-8-ylmethoxy)benzaldehyde]
delta p50 ([4]; compound at 100 μM): + (100 μM) (+ indicates a delta p50% of between 0 and 29)

COc1ccc(OCc2cccn3cncc23)c(C=O)c1 [Compound 7, 2-(imidazo[1,5-a]pyridin-8-ylmethoxy)-5-methoxybenzaldehyde]
delta p50 ([4]; compound at 30 μM): ++ (++ indicates a delta p50% of 30 or greater)

O=Cc1ccccc1NC(=O)c1cccn2ccnc12 [Compound 39, N-(2-formylphenyl)imidazo[1,2-a]pyridine-8-carboxamide]
delta p50 ([4]; compound at 100 μM): + (100 μM) (+ indicates a delta p50% of between 0 and 29)

COc1ccc(OCc2ccc3cncn3c2)c(C=O)c1 [Compound 34, 2-(imidazo[1,5-a]pyridin-6-ylmethoxy)-5-methoxybenzaldehyde]
delta p50 ([4]; compound at 30 μM): + (+ indicates a delta p50% of between 0 and 29)
